Measurements published in PMC10176470, “Engaging a Non-catalytic Cysteine Residue Drives Potent and Selective Inhibition of Caspase-6” (Journal of the American Chemical Society, 2023).

How the values were obtained:
Assay in all cases: SILAC proteomics / in-gel fluorescence, competition of probe 13-t labeling by 3a
[1] = molecular target: proteins of HEK293T cells transiently overexpressing caspase-6 (Homo sapiens, UniProt O14980); conditions: Comp; protein XPO1 O14980
[2] = molecular target: T1, proteins of HEK293T cells transiently overexpressing caspase-6 (Homo sapiens, UniProt P08243)
T1 sequence (P08243 1-561): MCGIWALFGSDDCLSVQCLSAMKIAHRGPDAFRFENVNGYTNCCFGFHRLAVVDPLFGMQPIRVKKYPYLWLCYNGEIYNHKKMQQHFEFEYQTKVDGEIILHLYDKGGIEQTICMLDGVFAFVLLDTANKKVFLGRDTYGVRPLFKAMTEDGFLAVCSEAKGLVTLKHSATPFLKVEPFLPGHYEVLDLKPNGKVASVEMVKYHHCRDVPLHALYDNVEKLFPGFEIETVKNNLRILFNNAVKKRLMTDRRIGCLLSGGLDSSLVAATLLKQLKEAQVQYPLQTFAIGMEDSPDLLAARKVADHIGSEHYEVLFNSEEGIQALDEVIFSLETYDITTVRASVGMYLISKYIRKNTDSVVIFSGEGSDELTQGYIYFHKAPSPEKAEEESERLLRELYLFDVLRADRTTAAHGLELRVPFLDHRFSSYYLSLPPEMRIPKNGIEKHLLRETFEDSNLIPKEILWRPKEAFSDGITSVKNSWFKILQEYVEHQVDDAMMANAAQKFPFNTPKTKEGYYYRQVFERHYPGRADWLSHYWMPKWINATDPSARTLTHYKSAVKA

[3] = molecular target: proteins of HEK293T cells transiently overexpressing caspase-6 (Homo sapiens, UniProt P13797); conditions: Comp; protein PLS3 P13797
[4] = molecular target: proteins of HEK293T cells transiently overexpressing caspase-6 (Homo sapiens, UniProt P15880); conditions: Comp; protein RPS2 P15880
[5] = molecular target: proteins of HEK293T cells transiently overexpressing caspase-6 (Homo sapiens, UniProt P26641); conditions: Comp; protein EEF1G P26641
[6] = molecular target: proteins of HEK293T cells transiently overexpressing caspase-6 (Homo sapiens, UniProt P27635); conditions: Comp; protein RPL10 P27635
[7] = molecular target: proteins of HEK293T cells transiently overexpressing caspase-6 (Homo sapiens, UniProt P34897); conditions: Comp; protein SHMT2 P34897
[8] = molecular target: proteins of HEK293T cells transiently overexpressing caspase-6 (Homo sapiens, UniProt P39023); conditions: Comp; protein RPL3 P39023
[9] = molecular target: proteins of HEK293T cells transiently overexpressing caspase-6 (Homo sapiens, UniProt P46777); conditions: Comp; protein RPL5 P46777
[10] = molecular target: proteins of HEK293T cells transiently overexpressing caspase-6 (Homo sapiens, UniProt P62424); conditions: Comp; protein RPL7A P62424
[11] = molecular target: proteins of HEK293T cells transiently overexpressing caspase-6 (Homo sapiens, UniProt Q04637); conditions: Comp; protein EIF4G1 Q04637
[12] = molecular target: proteins of HEK293T cells transiently overexpressing caspase-6 (Homo sapiens, UniProt Q13151); conditions: Comp; protein HNRNPA0 Q13151
[13] = molecular target: proteins of HEK293T cells transiently overexpressing caspase-6 (Homo sapiens, UniProt Q14974); conditions: Comp; protein KPNB1 Q14974
[14] = molecular target: proteins of HEK293T cells transiently overexpressing caspase-6 (Homo sapiens, UniProt Q9H307)
[15] = molecular target: T2, proteins of HEK293T cells transiently overexpressing caspase-6 (Homo sapiens, UniProt Q9UQ80); conditions: Comp; protein PA2G4 Q9UQ80
T2 sequence (Q9UQ80 1-394): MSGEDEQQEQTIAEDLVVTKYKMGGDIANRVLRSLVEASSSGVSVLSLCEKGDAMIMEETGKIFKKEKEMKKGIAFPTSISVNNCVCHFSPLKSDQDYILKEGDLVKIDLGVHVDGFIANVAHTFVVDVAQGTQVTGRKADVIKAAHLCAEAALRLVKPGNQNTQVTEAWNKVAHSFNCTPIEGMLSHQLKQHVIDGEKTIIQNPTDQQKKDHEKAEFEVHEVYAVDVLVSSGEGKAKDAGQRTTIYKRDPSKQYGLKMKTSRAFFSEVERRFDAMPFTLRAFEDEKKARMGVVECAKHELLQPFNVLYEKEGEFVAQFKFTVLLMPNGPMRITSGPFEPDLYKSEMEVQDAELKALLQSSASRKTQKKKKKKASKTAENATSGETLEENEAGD

[16] = protein ASNS (P08243), Exp Comp, analysis C6, p 0.1250, 4 peptides
[17] = protein PNN (Q9H307), Exp Comp, analysis C6, p 0.5000, 2 peptides

proteins of HEK293T cells transiently overexpressing caspase-6 (Homo sapiens, UniProt Q9H307), sequence (Q9H307 whole entry): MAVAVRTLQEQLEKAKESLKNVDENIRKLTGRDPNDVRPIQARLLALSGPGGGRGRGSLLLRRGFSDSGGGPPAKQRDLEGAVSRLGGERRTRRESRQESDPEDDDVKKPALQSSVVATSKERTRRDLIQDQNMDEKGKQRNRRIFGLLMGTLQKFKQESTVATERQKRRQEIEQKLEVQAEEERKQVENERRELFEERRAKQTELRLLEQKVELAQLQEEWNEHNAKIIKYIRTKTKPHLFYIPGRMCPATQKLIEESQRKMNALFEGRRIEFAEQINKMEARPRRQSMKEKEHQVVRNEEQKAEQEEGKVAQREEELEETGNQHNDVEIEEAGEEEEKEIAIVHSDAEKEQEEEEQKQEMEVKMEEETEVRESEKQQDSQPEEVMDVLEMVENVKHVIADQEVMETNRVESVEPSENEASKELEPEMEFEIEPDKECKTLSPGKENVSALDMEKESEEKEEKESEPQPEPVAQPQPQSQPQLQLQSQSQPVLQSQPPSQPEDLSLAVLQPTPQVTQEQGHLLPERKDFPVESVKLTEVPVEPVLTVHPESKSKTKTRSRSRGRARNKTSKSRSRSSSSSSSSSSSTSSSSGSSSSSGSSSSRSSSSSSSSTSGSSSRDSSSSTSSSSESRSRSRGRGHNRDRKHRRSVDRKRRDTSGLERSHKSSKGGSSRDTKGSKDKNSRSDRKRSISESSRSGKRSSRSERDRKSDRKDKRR
proteins of HEK293T cells transiently overexpressing caspase-6 (Homo sapiens, UniProt Q04637), sequence (Q04637 whole entry): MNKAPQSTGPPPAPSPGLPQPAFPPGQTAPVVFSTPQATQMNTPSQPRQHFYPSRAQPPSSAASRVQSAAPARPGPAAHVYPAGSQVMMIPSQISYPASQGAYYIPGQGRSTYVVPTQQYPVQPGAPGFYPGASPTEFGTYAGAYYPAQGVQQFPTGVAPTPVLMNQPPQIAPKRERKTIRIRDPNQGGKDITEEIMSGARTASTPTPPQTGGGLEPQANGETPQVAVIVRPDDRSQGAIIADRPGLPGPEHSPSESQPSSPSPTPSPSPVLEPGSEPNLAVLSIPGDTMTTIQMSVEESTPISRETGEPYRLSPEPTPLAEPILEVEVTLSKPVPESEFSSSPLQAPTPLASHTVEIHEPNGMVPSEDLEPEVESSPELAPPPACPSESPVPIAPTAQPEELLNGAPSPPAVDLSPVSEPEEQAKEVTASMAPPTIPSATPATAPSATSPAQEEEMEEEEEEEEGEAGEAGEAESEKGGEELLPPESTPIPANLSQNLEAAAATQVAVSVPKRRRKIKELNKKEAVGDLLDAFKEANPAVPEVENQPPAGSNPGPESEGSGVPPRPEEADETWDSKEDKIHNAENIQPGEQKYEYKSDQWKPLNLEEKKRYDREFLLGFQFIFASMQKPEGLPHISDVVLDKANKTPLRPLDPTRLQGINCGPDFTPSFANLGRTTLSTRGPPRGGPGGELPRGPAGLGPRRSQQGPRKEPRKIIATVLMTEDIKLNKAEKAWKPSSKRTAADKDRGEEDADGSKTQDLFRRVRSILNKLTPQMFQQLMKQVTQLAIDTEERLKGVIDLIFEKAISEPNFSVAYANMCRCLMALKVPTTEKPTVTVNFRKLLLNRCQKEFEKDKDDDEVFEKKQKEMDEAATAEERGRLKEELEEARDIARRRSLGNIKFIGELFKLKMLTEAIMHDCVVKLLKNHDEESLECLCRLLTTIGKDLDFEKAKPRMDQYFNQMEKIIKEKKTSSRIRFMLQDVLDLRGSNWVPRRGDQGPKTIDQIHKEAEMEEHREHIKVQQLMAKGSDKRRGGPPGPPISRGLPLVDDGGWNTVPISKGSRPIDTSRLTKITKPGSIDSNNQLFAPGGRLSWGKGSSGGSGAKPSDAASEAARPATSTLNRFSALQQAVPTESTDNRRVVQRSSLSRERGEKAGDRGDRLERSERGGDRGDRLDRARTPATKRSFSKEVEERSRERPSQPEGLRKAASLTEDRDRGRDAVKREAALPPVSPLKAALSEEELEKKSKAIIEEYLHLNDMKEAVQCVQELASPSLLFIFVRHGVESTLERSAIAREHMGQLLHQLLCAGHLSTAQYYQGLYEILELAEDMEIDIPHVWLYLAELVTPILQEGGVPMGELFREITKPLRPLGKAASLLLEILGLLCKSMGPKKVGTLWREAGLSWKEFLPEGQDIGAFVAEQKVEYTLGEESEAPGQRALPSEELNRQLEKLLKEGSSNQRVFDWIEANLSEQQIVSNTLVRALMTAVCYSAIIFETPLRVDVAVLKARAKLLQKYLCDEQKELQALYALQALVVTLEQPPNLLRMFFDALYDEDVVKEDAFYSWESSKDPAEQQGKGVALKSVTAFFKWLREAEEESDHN
proteins of HEK293T cells transiently overexpressing caspase-6 (Homo sapiens, UniProt P34897), sequence (P34897 30-504): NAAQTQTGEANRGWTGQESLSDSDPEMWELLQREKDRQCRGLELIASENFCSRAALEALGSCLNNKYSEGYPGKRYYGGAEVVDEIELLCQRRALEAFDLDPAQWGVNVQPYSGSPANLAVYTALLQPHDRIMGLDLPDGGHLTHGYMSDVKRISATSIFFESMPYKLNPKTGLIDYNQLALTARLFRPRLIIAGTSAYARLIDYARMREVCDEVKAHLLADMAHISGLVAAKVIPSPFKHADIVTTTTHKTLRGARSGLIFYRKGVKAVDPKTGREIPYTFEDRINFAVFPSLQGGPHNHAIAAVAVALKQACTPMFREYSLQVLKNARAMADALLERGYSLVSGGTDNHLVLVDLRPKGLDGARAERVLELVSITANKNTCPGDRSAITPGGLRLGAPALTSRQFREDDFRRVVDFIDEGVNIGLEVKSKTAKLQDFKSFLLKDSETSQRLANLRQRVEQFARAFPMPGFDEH
proteins of HEK293T cells transiently overexpressing caspase-6 (Homo sapiens, UniProt O14980), sequence (O14980 whole entry): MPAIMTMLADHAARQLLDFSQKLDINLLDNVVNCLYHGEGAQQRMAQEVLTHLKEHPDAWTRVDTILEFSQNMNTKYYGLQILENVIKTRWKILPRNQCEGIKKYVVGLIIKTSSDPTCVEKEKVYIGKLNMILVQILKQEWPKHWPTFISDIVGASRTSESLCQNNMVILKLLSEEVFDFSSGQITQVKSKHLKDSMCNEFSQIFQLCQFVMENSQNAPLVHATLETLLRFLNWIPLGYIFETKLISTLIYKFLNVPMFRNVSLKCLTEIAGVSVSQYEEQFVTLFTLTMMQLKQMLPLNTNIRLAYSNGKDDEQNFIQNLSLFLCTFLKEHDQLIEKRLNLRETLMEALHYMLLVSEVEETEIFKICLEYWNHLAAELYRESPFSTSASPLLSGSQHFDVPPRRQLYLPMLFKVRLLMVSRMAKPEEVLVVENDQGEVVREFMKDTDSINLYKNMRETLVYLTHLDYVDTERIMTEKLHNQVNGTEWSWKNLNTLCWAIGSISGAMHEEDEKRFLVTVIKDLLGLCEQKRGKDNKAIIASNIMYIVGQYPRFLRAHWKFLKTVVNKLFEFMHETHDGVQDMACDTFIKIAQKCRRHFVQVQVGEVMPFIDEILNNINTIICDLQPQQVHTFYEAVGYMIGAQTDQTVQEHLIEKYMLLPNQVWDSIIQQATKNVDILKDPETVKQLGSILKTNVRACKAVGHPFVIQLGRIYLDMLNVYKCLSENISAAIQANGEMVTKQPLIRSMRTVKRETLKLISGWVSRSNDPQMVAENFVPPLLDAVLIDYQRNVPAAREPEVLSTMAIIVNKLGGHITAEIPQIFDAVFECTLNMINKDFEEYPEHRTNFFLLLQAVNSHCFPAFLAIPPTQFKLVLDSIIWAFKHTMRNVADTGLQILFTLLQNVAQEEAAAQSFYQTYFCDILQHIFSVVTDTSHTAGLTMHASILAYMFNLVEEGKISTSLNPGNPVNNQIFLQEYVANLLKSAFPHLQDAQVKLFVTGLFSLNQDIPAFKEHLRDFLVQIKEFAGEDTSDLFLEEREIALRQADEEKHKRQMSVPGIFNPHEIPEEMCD
proteins of HEK293T cells transiently overexpressing caspase-6 (Homo sapiens, UniProt Q13151), sequence (Q13151 whole entry): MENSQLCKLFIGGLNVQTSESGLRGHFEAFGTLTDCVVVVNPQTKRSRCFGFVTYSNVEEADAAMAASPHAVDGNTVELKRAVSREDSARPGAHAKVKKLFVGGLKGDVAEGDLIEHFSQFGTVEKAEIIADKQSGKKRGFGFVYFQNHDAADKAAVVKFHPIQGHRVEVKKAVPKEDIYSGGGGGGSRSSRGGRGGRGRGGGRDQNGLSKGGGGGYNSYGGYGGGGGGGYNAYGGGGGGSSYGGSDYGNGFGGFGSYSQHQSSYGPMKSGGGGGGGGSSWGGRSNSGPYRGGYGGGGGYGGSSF
proteins of HEK293T cells transiently overexpressing caspase-6 (Homo sapiens, UniProt P13797), sequence (P13797 whole entry): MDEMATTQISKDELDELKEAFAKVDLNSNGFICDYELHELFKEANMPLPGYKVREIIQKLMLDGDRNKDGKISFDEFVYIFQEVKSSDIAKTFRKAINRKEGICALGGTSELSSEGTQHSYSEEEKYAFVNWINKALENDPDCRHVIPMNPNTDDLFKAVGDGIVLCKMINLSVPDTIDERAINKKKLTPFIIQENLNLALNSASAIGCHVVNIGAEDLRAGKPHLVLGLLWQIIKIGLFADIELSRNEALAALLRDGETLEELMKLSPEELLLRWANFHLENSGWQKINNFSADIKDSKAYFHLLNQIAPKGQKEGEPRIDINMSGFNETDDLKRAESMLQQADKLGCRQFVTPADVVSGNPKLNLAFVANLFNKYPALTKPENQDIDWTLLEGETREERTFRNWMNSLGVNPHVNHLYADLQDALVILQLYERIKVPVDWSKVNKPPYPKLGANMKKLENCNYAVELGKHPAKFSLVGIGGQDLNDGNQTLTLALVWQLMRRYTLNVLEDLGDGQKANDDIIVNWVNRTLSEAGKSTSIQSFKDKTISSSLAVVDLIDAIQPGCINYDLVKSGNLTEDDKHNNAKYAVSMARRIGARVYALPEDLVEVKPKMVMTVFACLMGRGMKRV

C=CS(=O)(=O)N1C[C@H](C(=O)Nc2ccc(OC(F)(F)F)cc2)C[C@@H](c2ccccc2)C1 [3a]
enrich.exp.med [1]: 0.6797
enrich.exp.med ([2]; Comp, protein ASNS P08243): 1.12
enrich.exp.med.lin [2, 16]: 2.174
enrich.exp.med.log2 [2, 16]: 1.12
enrich.exp.med [3]: 0.6361
enrich.exp.med [4]: 0.7281
enrich.exp.med [5]: 0.7548
enrich.exp.med [6]: 0.809
enrich.exp.med [7]: 0.5876
enrich.exp.med [8]: 0.8762
enrich.exp.med [9]: 0.7402
enrich.exp.med [10]: 0.707
enrich.exp.med [11]: 0.702
enrich.exp.med [12]: 0.7909
enrich.exp.med [13]: 0.6036
enrich.exp.med ([14]; Comp, protein PNN Q9H307): 1.018
enrich.exp.med.lin [14, 17]: 2.025
enrich.exp.med.log2 [14, 17]: 1.018
enrich.exp.med [15]: 0.7436
